Read-outs that look alike come from different tables or passages of the source.
Legend:
[1] = target: c-kit (Homo sapiens, UniProt P10721); conditions: MO7E cells, 250 ng/ml rh-SCF 15 min, pre-treatment Compound Eight 2 hours, Compound Six 22 hours
Method: (§1) MO7E cells, a human myeloid leukemia cell line, were maintained in RPMI-1640 medium supplemented with 10% fetal calf serum and 10 ng/ml each IL-3 and GM-CSF.
MO7E cells were serum starved overnight in 0.1% serum. […] Cells were stimulated with 250 ng/ml rh-SCF for 15 minutes. Following stimulation, cells were lysed and immunoprecipitated with an anti-c-kit antibody. Phosphotyrosine and protein levels were determined by western blotting.

[2] = tested on: MO7E cells; test: cells; conditions: Homo sapiens, 48 h, read-out: IC50 value for inhibition of proliferation
Method: as §1

[3] = tested on: MO7E cells; test: Apoptosis assay: activated caspase-3 by FACS; assay type: cell-based, human
Method: (§2) Samples were assayed at 24 and 48 hours. To measure activated caspase-3, samples were washed with PBS and permeabilized with ice-cold 70% ethanol. The cells were then stained with PE-conjugated polyclonal rabbit anti-active caspase-3 and analyzed by FACS. To measure cleaved PARP, samples were lysed and analyzed by western blotting with an anti-PARP antibody.

[4] = tested on: MO7E cells; test: Apoptosis assay: cleaved PARP by western blotting; assay type: cell-based, human
Method: as §2

Sequence of c-kit (P10721 26-976): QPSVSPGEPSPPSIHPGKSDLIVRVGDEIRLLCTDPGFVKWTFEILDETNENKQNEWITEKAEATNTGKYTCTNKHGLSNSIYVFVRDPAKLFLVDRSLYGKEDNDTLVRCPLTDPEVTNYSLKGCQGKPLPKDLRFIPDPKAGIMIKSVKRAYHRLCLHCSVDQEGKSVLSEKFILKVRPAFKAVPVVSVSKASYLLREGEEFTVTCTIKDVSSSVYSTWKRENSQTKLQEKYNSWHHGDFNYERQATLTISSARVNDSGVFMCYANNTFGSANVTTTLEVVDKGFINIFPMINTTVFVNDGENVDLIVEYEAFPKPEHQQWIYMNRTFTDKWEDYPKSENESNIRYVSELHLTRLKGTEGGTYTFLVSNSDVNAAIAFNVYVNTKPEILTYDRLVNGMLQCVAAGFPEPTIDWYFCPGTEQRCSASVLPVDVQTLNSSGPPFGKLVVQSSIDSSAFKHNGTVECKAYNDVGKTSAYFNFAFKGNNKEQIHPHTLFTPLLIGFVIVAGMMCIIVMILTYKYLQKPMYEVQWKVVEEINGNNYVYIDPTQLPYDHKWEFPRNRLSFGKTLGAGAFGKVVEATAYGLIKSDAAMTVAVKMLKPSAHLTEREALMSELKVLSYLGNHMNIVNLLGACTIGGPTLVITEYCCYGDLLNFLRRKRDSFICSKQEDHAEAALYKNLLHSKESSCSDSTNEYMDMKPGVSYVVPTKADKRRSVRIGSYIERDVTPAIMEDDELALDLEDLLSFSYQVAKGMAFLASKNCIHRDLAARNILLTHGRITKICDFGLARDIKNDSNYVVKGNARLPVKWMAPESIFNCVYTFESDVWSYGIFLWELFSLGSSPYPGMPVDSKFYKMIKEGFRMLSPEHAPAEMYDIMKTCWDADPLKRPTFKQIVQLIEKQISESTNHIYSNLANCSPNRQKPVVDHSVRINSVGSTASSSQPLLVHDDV

Row | SMILES | inhibition of c-kit tyrosine phosphorylation ([1]; 0.01 μM) | inhibition of c-kit tyrosine phosphorylation ([1]; 0.1 μM) | inhibition of c-kit tyrosine phosphorylation ([1]; 1 μM) | inhibition of c-kit tyrosine phosphorylation ([1]; 10 μM) | IC50 [2] [µM] | effect on number of apoptotic cells (activated caspase-3) ([3]; 5 μM, 24 hours, with or without SCF stimulation) | effect on number of apoptotic cells (activated caspase-3) ([3]; 5 μM, 24 or 48 hours, +/- SCF stimulation) | effect on number of apoptotic cells (activated caspase-3) ([3]; 25 μM, 24 hours, +/- SCF stimulation) | increase in the number of apoptotic cells (activated caspase-3) ([3]; 25 μM, 48 hours, SCF stimulation, compared to untreated SCF stimulated cells) | effect on number of apoptotic cells (activated caspase-3) ([3]; 25 μM, 48 hours, absence of SCF stimulation) | increase in cleaved PARP ([4]; 5 μM, both timepoints (24 and 48 hours)) | increase in the amount of cleaved PARP ([4]; 25 μM, 48 hours) | change of the cleaved PARP effect with SCF stimulation ([4]; 25 μM, 48 hours, with SCF stimulation)
1 | Cc1[nH]c(/C=C2\C(=O)Nc3ccccc32)c(C)c1CCC(=O)O [Compound Six] | no inhibition | no inhibition | partial inhibition | complete inhibition | 5 to 7 | no effect |  |  |  |  |  |  | 
2 | Cc1cc(C)c(/C=C2\C(=O)Nc3ccccc32)[nH]1 [Compound Eight] |  |  |  |  |  |  | measurable but smaller number of apoptotic cells | measurable but smaller number of apoptotic cells | approximately 50% | slight effect | very minimal increase | greatest increase | augmented slightly
